According to ChEMBL document CHEMBL3769389, “Development of a potent 2-oxoamide inhibitor of secreted phospholipase A2 guided by molecular docking calculations and molecular dynamics simulations” (Bioorg Med Chem, 2016):

Key:
[1] = biological target: T1, Phospholipase A2, membrane associated (Homo sapiens) (UniProt P14555); test: Inhibition of human group 2A secreted phospholipase A2 at 10 uM by fluorescence assay
T1 sequence (whole entry): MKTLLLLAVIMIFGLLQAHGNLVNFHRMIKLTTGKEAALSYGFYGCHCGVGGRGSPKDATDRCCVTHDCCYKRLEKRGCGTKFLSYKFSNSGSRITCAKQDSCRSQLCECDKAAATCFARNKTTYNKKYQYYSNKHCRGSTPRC

[2] = biological target: Phospholipase A2 (Homo sapiens) (UniProt P04054); test: Inhibition of human group 1B secreted phospholipase A2 at 10 uM by fluorescence assay
Sequence of Phospholipase A2 (Homo sapiens) (P04054 23-148 limits assumed): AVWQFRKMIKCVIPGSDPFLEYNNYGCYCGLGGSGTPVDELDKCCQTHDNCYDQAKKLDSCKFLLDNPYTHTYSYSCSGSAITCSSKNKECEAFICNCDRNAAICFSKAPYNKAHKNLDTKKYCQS

[3] = biological target: T2, Phospholipase A2 group V (Homo sapiens) (UniProt P39877); test: Inhibition of human group 5 secreted phospholipase A2 at 10 uM by fluorescence assay
T2 sequence (whole entry): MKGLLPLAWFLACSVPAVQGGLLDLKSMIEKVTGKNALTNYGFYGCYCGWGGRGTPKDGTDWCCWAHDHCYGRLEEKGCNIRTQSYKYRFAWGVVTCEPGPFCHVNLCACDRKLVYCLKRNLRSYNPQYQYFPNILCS

[4] = biological target: T3, Group 10 secretory phospholipase A2 (Homo sapiens) (UniProt O15496); test: Inhibition of human group 10 secreted phospholipase A2 at 10 uM by fluorescence assay
T3 sequence (whole entry): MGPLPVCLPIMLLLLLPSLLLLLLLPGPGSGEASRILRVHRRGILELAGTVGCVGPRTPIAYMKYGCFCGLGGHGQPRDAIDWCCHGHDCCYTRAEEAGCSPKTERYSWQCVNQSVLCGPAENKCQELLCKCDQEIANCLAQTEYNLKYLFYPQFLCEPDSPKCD

[5] = biological target: T1, Phospholipase A2, membrane associated (Homo sapiens); test: Inhibition of human group 2A secreted phospholipase A2 at 1 uM by fluorescence assay
[6] = biological target: T4, Phospholipase A2, membrane associated (Mus musculus) (UniProt P31482); test: Inhibition of mouse group 2A secreted phospholipase A2 at 1 uM by fluorescence assay
T4 sequence (whole entry): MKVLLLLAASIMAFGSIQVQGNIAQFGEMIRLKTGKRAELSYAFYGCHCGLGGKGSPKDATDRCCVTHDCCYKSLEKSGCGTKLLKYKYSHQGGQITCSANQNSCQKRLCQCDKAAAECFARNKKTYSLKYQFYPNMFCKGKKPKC

[7] = biological target: T5, Phospholipase A2, membrane associated (Homo sapiens, UniProt P14555); test: Inhibition of human group 2A secreted phospholipase A2 by fluorescence assay
T5 sequence (P14555 whole entry): T1 sequence (whole entry)

Phospholipase A2 group V = biological target: T6, Phospholipase A2 group V (Homo sapiens, UniProt P39877); test: Inhibition of human group 5 secreted phospholipase A2 by fluorescence assay
T6 sequence (P39877 whole entry): T2 sequence (whole entry)

[8] = biological target: T7, Phospholipase A2, membrane associated (Mus musculus, UniProt P31482); test: Inhibition of mouse group 2A secreted phospholipase A2 by fluorescence assay
T7 sequence (P31482 whole entry): T4 sequence (whole entry)

[9] = biological target: T3, Group 10 secretory phospholipase A2 (Homo sapiens); test: Inhibition of human group 10 secreted phospholipase A2 assessed as remaining activity at 1000 nM by fluorescence assay
[10] = biological target: Phospholipase A2 (Homo sapiens) (UniProt P04054); test: Inhibition of human group 1B secreted phospholipase A2 assessed as remaining activity at 1000 nM by fluorescence assay
[11] = biological target: T8, Group IIE secretory phospholipase A2 (Homo sapiens) (UniProt Q9NZK7); test: Inhibition of human group 2E secreted phospholipase A2 assessed as remaining activity at 1000 nM by fluorescence assay
T8 sequence (whole entry): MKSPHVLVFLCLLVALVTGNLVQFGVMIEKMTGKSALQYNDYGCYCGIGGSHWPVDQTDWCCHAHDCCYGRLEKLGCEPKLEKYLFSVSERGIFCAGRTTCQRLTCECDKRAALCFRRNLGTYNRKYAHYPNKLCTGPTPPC

[12] = biological target: T9, Group IIF secretory phospholipase A2 (Homo sapiens) (UniProt Q9BZM2); test: Inhibition of human group 2F secreted phospholipase A2 assessed as remaining activity at 1000 nM by fluorescence assay
T9 sequence (whole entry): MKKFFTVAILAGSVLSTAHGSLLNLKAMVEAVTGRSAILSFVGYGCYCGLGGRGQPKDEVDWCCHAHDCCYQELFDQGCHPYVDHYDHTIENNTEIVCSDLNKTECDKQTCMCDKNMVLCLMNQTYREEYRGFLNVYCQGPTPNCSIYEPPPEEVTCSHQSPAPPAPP

[13] = biological target: T10, Group 10 secretory phospholipase A2 (Mus musculus) (UniProt Q9QXX3); test: Inhibition of mouse group 10 secreted phospholipase A2 assessed as remaining activity at 1000 nM by fluorescence assay
T10 sequence (whole entry): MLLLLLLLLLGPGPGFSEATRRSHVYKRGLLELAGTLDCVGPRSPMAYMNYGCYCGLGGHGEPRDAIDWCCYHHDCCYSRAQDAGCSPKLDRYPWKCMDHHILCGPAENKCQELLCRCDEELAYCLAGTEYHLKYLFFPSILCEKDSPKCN

[14] = biological target: T11, Group IID secretory phospholipase A2 (Mus musculus) (UniProt Q9WVF6); test: Inhibition of mouse 2D secreted phospholipase A2 assessed as remaining activity at 1000 nM by fluorescence assay
T11 sequence (whole entry): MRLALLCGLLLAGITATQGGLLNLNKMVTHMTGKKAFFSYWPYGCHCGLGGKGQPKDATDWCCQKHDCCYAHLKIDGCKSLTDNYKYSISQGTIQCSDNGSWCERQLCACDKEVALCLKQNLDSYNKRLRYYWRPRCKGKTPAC

[15] = biological target: T12, Phospholipase A2 group V (Mus musculus) (UniProt P97391); test: Inhibition of mouse group 5 secreted phospholipase A2 assessed as remaining activity at 1000 nM by fluorescence assay
T12 sequence (whole entry): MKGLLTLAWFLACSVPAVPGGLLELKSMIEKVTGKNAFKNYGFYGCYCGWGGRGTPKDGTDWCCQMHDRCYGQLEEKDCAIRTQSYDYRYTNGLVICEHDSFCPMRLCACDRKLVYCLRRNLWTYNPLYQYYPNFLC

Homo sapiens = organism: Homo sapiens; test: Selectivity ratio of IC50 for human group 5 secreted phospholipase A2 to human group 2A secreted phospholipase A2
[16] = biological target: T1, Phospholipase A2, membrane associated (Homo sapiens); test: Potency index, ratio of GK126 IC50 to compound IC50 for human group 2A secreted phospholipase A2
[17] = biological target: T4, Phospholipase A2, membrane associated (Mus musculus); test: Potency index, ratio of GK126 IC50 to compound IC50 for mouse group 2A secreted phospholipase A2

Row | SMILES | inhibition [1] [%] | inhibition [2] [%] | inhibition [3] [%] | inhibition [4] [%] | inhibition [5] [%] | inhibition [6] [%] | further results
1 | CC(C)[C@H](NC(=O)C(=O)c1ccc2ccccc2c1)C(=O)O | 50 | 50 | 53 | 56 |  |  | 
2 | CCCCCCCCCCCCCCC(=O)C(=O)N[C@H](C(=O)O)C(C)C |  |  |  |  |  |  | IC50 [7]: 143 nM; IC50 (Phospholipase A2 group V): 1200 nM; IC50 [8]: 68 nM; Activity [9]: 95%; Activity [10]: 98%; Activity [11]: 93%; Activity [12]: 94%; Activity [13]: 98%; Activity [14]: 99%; Activity [15]: 90%; Ratio IC50 (Homo sapiens): 10; Ratio IC50 [16]: 2; Ratio IC50 [17]: 2
3 | CCCCCCCCCCCCCCC(=O)C(=O)N[C@@H](CCC(=O)O)C(=O)OCC |  |  |  |  | < 25 | < 25 | 
4 | CC(C)[C@H](NC(=O)C(=O)CCCCc1ccc2ccccc2c1)C(=O)O | 27 | 20 | 26 | 51 |  |  | 
5 | CC(C)[C@H](NC(=O)C(=O)CCCCc1ccccc1)C(=O)O | 11 | 56 | 40 | 40 |  |  | 
6 | CC(C)[C@H](NC(=O)C(=O)CCCCc1ccc(-c2ccccc2)cc1)C(=O)O | 21 | 30 | 50 | 54 |  |  | 

The next lines start with results.

Row | inhibition [1] [%] | inhibition [2] [%] | inhibition [3] [%] | inhibition [4] [%] | inhibition [5] [%] | inhibition [6] [%] | SMILES | further results
7 |  |  |  |  | < 25 | < 25 | CCCCCCCCCCCCCCC(=O)C(=O)NC(C)(C)C(=O)O | 
8 |  |  |  |  | < 25 | < 25 | CCCCCCCCCCCCCCC(=O)C(=O)N1CCC[C@H]1C(=O)O | 
9 |  |  |  |  | < 25 | < 25 | CCCCCCCCCCCCCCC(=O)C(=O)N[C@H](C(=O)O)C(C)(C)C | 
10 |  |  |  |  | < 25 | < 25 | CCCCCCCCCCCCCCC(=O)C(=O)N[C@@H](C)C(=O)O | 
11 |  |  |  |  | < 25 | < 25 | CCCCCCCCCCCCCCC(=O)C(=O)N[C@@H](CCC(=O)O)C(=O)O | 
